Consider 2 molecules from patent US20100240656A1, “COMPOUNDS AS HSP90 INHIBITORS” (ORYZON GENOMICS, S.A., priority 2007, published 2010).

pEC50: −log10 of the molar value. “Also recorded” adds a separate entry of the source.

The subject of test [1] is Hsp90 client proteins (c-Raf-1, Cdk4, Her2) and co-chaperone Hsp70. As to the kind of experiment: Determination of biomarkers in cell cultures (western blot, MCF7 cells). Type of test: cell-based, human. The note with it: 33 and 100 μM, 72 hours. An excerpt: FIG. 1 is a western blot analysis to determine the protein levels of Hsp90 client proteins (c-Raf-1, Cdk4, and Her2) and the co-chaperone Hsp70 upon treatment with increasing concentrations of example 6 (compound of the invention) and 17AAG (which is known in the state of the art as a degradation promoter).
The aim of this study was to determine the influence of example 6 on the levels of pharmacodynamic biomarkers such as c-Raf-1, Cdk4, Her2 and Hsp70, indicative that the effect observed in cell viability is mediated through inhibition of Hsp90. GADPH was used as a control of protein loading.
MCF7 cells (1×10^6) were seeded on tissue culture dishes and allowed to grow overnight at 37° C. with 5% CO2. Cells were treated with example 6 compound (at 33 and 100 μM) and the known Hsp90 inhibitor 17AAG (at […]). 0.5% DMSO was used as control. […] Protein concentration was measured by the Bradford method (Bio-Rad Protein Assay, Bio-Rad). […] Following appropriate secondary antibody incubation for 1 h at room temperature (anti-rabbit IgG-HRP, NA934V, Amersham Biosciences, diluted 1:8000; anti-mouse IgG-HRP, sc-2061, Santa Cruz Biotechnology, diluted 1:2500 and, anti-goat IgG-HRP, sc-31154, Santa Cruz Biotechnology, diluted 1:3500), the specific protein signals were detected using the ECL-Plus Western blotting detection system (GE Healthcare) according to the manufacturer's instructions. […]
(In general: A western blot detects proteins with antibodies after separation by electrophoresis.)

The subject of test [2] is SKBr3. Briefly: Cell growth inhibition by AlamarBlue method, SKBr3. Type of test: cell-based. As to conditions: Homo sapiens, SK-BR-3; SKBr3, 72 hours; read-out: Cell growth inhibition values (EC50) obtained with AlamarBlue method. On the procedure: The human colon cancer cell line HCT-116 and the human breast cell lines MCF-7 and SKBr3 were from the American Type Culture Collection (ATCC; CCL-247, HTB-22 and HTB-30, respectively).
The HCT-116 and SKBr3 cell lines were maintained in DMEM GlutaMAX (Invitrogen) supplemented with 10% fetal calf serum and the MCF-7 cell line was maintained in RPMI1640 GlutaMAX (Invitrogen) containing 1 mM sodium pyruvate and 10% fetal calf serum. Cells were grown in a humidified incubator at 37° C. in 5% CO2
Cells were plated in 96-well plates (Costar, 3596) at a density of 6000 cells/well in 50 μL medium 24 h before addition of the compounds. Compounds were then added in 8 concentrations, each in triplicate (dilution series of 1 to 3). To do so, a compound-dilution plate at 200× the screening concentrations was prepared in DMSO 100% (Sigma, 154938). Then, 1.7 μL of the 200× diluted compounds were transferred to a new plate and 170 μL of media were added and mixed with the pipette (plate at 2×). Columns 11 and 12 of this plate (controls) were filled with 1% DMSO in cell media (i.e. 1.7 μL DMSO and 170 μL cell media). Finally, 50 μL of this intermediate plate at 2× were transferred to the plate containing the seeded cells and slowly shaken manually. Cells were grown as described above. AlamarBlue viability assay (Biosource, Invitrogen, DAL1100) was performed 72 hours later following manufacturer's protocol. In brief, AlamarBlue diluted in media was added to cells to have a 5% solution (a 2× solution was prepared in media and 100 μL of this solution were transferred to each well, i.e. final volume of 200 μL). Cells were incubated at 37° C., 3 hours and at room temperature for an additional 30 min. Cells with no compound and, cells with no compound and lysed with triton X-100 (30 μL/well added 10 min before treatment with AlamarBlue) were used as controls (6 replicates of each). Fluorescence was monitored at 530 nm excitation and 590 nm emission wavelengths. Results were quantified using ELx800 Universal Microplate Reader (Bio-Tek Instruments, Inc.). EC50 were calculated as the dose of compound required to inhibit cell growth by 50%.
(In general: Alamar Blue is a resazurin reagent that responds to reducing activity.)

Consider `NCCCCCn1c(Sc2cc3c(cc2I)OCO3)nc(C(N)=O)c1N` [Example 6, 5-amino-1-(5-amino-pentyl)-2-(6-iodo-benzo[1,3]dioxol-5-ylsulfanyl)-1H-imidazole-4-carboxamide], for which the “protein levels of Hsp90 client proteins (c-Raf-1, Cdk4, Her2) and co-chaperone Hsp70 by western blot” value in test [1] was “acts in a similar way that 17AAG; also recorded: there is a specific interaction with hsp90 target in cells”.

Usually pEC50 stands for the EC50 on a negative log10 scale, so that one unit is a factor of ten. `CCCCn1c(Sc2cc3c(cc2I)OCO3)nc(C(N)=O)c1N` [Example 10, 5-amino-1-butyl-2-(6-iodo-benzo[1,3]dioxol-5-ylsulfanyl)-1H-imidazole-4-carboxamide]: in test [2], the pEC50 was 4.52 to 4.62.
